The values below come from ChEMBL document CHEMBL4387741, “Optimization of novel reversible Bruton's tyrosine kinase inhibitors identified using Tethering-fragment-based screens” (Bioorg Med Chem, 2019).

Assay [1] has as its target Serine/threonine-protein kinase VRK2 (Homo sapiens) (UniProt Q86Y07). Put plainly: Inhibition of wild-type human partial length VRK2 (M1 to T336 residues) expressed in mammalian expression system at 10 uM by Kinomescan method relative to control.
The test system of assay [2] is Phosphatidylinositol 4,5-bisphosphate 3-kinase catalytic subunit alpha isoform (Homo sapiens), P42336 [E545K]. Put plainly: Inhibition of human partial length PIK3CA E545K mutant (R108 to N1068 residues) expressed in mammalian expression system at 10 uM by Kinomescan method relative to control.
Assay [3] relates to Mast/stem cell growth factor receptor Kit (Homo sapiens), P10721 [D816V]. As to the kind of experiment: Inhibition of human partial length KIT D816V mutant (I571 to D952 residues) expressed in bacterial expression system at 10 uM by Kinomescan method relative to control.
Assay [4] concerns the target Death-associated protein kinase 2 (Homo sapiens) (UniProt Q9UIK4). Put plainly: Inhibition of wild-type human full length DAPK2 (M1 to S370 residues) expressed in bacterial expression system at 10 uM by Kinomescan method relative to control.
Assay [5] has as its target NUAK family SNF1-like kinase 1 (Homo sapiens) (UniProt O60285). As to the kind of experiment: Inhibition of wild-type human partial length ARK5 (E25 to I332 residues) expressed in bacterial expression system at 10 uM by Kinomescan method relative to control.
Assay [6] deals with Receptor-type tyrosine-protein kinase FLT3 (Homo sapiens), P36888 [UNDEFINED MUTATION]. As to the kind of experiment: Inhibition of human partial length FLT3 ITD mutant expressed in bacterial expression system at 10 uM by Kinomescan method relative to control.
Sequence of Receptor-type tyrosine-protein kinase FLT3 (Homo sapiens), P36888 [UNDEFINED MUTATION] (P36888 whole entry, looked up, change not shown, the tested form may be a part): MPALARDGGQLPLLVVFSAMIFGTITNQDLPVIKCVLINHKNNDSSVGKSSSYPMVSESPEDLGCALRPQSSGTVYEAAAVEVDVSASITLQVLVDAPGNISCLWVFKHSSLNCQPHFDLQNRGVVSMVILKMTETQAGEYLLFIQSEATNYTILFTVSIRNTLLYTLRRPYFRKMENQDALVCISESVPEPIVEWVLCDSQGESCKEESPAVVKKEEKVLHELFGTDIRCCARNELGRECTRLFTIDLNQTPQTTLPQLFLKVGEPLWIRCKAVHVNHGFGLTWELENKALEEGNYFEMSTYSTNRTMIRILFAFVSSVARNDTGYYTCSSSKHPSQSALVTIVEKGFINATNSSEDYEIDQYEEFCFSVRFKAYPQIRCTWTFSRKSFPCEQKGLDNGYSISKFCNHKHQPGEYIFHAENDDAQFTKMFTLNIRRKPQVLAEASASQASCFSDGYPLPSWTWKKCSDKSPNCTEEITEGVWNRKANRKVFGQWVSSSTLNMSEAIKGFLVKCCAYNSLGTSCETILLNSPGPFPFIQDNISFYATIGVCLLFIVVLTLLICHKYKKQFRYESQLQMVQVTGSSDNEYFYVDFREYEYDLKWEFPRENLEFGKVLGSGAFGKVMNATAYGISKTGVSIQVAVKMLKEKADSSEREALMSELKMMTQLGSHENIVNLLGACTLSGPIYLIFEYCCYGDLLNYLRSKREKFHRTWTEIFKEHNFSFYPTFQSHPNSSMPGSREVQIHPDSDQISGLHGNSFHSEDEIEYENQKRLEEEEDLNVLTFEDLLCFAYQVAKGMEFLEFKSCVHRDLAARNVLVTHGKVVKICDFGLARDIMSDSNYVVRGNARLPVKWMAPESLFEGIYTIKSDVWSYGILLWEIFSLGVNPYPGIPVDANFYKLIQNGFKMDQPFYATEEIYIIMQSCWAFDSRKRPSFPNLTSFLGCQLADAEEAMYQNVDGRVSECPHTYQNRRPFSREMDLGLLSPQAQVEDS
For assay [7], the target named is cAMP-dependent protein kinase catalytic subunit beta (Homo sapiens) (UniProt P22694). Put plainly: Inhibition of wild-type human full length PKAC-beta (M1 to F351 residues) expressed in bacterial expression system at 10 uM by Kinomescan method relative to control.
In assay [8] the target is Serine/threonine-protein kinase BRSK2 (Homo sapiens) (UniProt Q8IWQ3). As to the kind of experiment: Inhibition of wild-type human full length BRSK2 (M1 to L674 residues) expressed in bacterial expression system at 10 uM by Kinomescan method relative to control.
Sequence of Serine/threonine-protein kinase BRSK2 (Homo sapiens) (Q8IWQ3 whole entry, the tested form may be a part): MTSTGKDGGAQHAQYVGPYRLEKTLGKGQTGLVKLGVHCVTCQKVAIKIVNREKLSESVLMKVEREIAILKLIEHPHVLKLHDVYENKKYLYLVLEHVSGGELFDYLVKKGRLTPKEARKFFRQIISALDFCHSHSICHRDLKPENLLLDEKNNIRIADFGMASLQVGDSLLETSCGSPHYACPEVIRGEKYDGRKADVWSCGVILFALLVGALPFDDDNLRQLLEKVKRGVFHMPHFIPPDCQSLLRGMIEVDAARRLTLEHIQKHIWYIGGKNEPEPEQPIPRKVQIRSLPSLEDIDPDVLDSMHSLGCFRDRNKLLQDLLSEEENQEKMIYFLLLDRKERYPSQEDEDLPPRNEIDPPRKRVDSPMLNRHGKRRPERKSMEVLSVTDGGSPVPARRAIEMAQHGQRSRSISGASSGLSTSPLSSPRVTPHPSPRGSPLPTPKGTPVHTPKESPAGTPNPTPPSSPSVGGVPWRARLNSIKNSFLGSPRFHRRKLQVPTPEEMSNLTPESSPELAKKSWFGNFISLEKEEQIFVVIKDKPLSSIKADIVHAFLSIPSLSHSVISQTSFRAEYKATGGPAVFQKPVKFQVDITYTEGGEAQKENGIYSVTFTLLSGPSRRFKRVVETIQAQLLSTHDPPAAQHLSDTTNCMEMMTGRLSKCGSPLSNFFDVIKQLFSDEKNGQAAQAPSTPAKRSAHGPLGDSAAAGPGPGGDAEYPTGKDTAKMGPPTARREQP
In assay [9] the target is Non-receptor tyrosine-protein kinase TYK2 (Homo sapiens) (UniProt P29597). As to the kind of experiment: Inhibition of wild-type human partial length TYK2 JH1 catalytic domain (V877 to C1187 residues) expressed in mammalian expression system at 10 uM by Kinomescan method relative to control.
Assay [10] concerns the target Vascular endothelial growth factor receptor 1 (Homo sapiens) (UniProt P17948). As to the kind of experiment: Inhibition of wild-type human partial length FLT1 (R781 to F1239 residues) expressed in bacterial expression system at 10 uM by Kinomescan method relative to control.
Assay [11] addresses Calcium/calmodulin-dependent protein kinase type 1 (Homo sapiens) (UniProt Q14012). As to the kind of experiment: Inhibition of wild-type human full length CAMK1 (M1 to L370 residues) expressed in bacterial expression system at 10 uM by Kinomescan method relative to control.
Assay [12] deals with Serine/threonine-protein kinase ULK1 (Homo sapiens) (UniProt O75385). Put plainly: Inhibition of wild-type human partial length ULK1 (M1 to T309 residues) expressed in mammalian expression system at 10 uM by Kinomescan method relative to control.
Assay [13] deals with Cytoplasmic tyrosine-protein kinase BMX (Homo sapiens) (UniProt P51813). As to the kind of experiment: Inhibition of wild-type human full length BMX (M1 to H675 residues) expressed in bacterial expression system at 10 uM by Kinomescan method relative to control.
For assay [14], the target named is Cyclin-dependent kinase 13 (Homo sapiens) (UniProt Q14004). Put plainly: Inhibition of wild-type human partial length CDC2L5 (H675 to S1054 residues) expressed in mammalian expression system at 10 uM by Kinomescan method relative to control.
The target of assay [15] is Tyrosine-protein kinase Fer (Homo sapiens) (UniProt P16591). Put plainly: Inhibition of wild-type human partial length FER (S542 to T822 residues) expressed in bacterial expression system at 10 uM by Kinomescan method relative to control.
Sequence of Tyrosine-protein kinase Fer (Homo sapiens) (P16591 whole entry, looked up, the tested form may be a part): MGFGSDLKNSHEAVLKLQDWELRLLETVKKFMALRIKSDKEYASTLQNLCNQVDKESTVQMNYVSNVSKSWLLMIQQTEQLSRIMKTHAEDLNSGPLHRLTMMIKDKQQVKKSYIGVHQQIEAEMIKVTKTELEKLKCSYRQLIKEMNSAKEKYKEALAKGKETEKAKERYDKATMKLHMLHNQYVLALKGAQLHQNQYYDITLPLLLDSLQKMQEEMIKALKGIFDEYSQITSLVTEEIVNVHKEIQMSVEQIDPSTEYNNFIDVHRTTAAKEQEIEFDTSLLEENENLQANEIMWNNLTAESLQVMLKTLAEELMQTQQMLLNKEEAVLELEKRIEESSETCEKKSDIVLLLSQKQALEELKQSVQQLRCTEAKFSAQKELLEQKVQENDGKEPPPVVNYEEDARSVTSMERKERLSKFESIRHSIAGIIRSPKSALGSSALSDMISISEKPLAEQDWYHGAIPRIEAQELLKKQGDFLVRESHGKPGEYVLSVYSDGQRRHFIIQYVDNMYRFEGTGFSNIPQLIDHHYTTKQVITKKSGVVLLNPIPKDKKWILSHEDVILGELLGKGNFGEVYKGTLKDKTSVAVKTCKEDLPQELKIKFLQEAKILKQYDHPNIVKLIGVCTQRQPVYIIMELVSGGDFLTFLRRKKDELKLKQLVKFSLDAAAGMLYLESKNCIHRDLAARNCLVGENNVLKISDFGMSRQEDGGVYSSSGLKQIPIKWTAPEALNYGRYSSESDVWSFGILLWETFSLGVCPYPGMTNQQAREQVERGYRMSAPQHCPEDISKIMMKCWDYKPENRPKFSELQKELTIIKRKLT
Assay [16] deals with Activin receptor type-1-like (Homo sapiens) (UniProt P37023). Put plainly: Inhibition of wild-type human ACVRL1 (L164 to Q503 residues) expressed in bacterial expression system at 1 uM by Kinomescan method relative to control.
Sequence of Activin receptor type-1-like (Homo sapiens) (P37023 whole entry, the tested form may be a part): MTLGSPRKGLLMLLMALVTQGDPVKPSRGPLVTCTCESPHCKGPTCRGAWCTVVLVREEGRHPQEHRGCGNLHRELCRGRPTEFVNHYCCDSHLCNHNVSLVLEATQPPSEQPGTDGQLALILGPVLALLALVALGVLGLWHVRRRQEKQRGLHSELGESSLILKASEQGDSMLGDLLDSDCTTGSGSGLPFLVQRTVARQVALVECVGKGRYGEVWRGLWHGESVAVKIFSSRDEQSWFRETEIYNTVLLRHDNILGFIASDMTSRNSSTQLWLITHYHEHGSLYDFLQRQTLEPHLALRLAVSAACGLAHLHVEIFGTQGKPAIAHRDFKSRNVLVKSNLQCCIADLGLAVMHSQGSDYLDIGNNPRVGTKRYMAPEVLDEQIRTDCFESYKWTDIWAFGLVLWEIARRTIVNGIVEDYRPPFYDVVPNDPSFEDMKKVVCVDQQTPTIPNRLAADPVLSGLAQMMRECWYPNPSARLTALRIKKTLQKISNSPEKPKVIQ
Assay [17] concerns the target CDK4/Cyclin D3 (Homo sapiens) (UniProt P11802+P30281). Put plainly: Inhibition of wild-type human full length CDK4/cyclinD3 (M1 to E303 residues) expressed in mammalian expression system at 1 uM by Kinomescan method relative to control.
Assay [18] concerns the target Serine/threonine-protein kinase B-raf (Homo sapiens) (UniProt P15056). As to the kind of experiment: Inhibition of wild-type human partial length BRAF (S429 to E741 residues) expressed in mammalian expression system at 1 uM by Kinomescan method relative to control.
Assay [19] has as its system Phosphatidylinositol 4,5-bisphosphate 3-kinase catalytic subunit alpha isoform (Homo sapiens), P42336 [M1043I]. Put plainly: Inhibition of human partial length PIK3CA M1043I mutant (R108 to N1068 residues) expressed in mammalian expression system at 1 uM by Kinomescan method relative to control.
Assay [20] deals with Serine/threonine-protein kinase RIO1 (Homo sapiens) (UniProt Q9BRS2). As to the kind of experiment: Inhibition of wild-type human full length RIOK1 (M1 to K568 residues) expressed in bacterial expression system at 1 uM by Kinomescan method relative to control.
The target of assay [21] is Macrophage colony-stimulating factor 1 receptor (Homo sapiens) (UniProt P07333). As to the kind of experiment: Inhibition of wild-type human partial length CSF1R (I564 to S939 residues) expressed in bacterial expression system at 1 uM by Kinomescan method relative to control.
Assay [22] concerns Mast/stem cell growth factor receptor Kit (Homo sapiens), P10721 [V559D,T670I]. As to the kind of experiment: Inhibition of human partial length KIT V559D/T670I double mutant (Y545 to D952 residues) expressed in bacterial expression system at 1 uM by Kinomescan method relative to control.
The target in assay [23] is Phosphatidylinositol 5-phosphate 4-kinase type-2 beta (Homo sapiens) (UniProt P78356). Put plainly: Inhibition of wild-type human full length PIP5K2B (M1 to T416 residues) expressed in bacterial expression system at 1 uM by Kinomescan method relative to control.
Sequence of Phosphatidylinositol 5-phosphate 4-kinase type-2 beta (Homo sapiens) (P78356 whole entry, the tested form may be a part): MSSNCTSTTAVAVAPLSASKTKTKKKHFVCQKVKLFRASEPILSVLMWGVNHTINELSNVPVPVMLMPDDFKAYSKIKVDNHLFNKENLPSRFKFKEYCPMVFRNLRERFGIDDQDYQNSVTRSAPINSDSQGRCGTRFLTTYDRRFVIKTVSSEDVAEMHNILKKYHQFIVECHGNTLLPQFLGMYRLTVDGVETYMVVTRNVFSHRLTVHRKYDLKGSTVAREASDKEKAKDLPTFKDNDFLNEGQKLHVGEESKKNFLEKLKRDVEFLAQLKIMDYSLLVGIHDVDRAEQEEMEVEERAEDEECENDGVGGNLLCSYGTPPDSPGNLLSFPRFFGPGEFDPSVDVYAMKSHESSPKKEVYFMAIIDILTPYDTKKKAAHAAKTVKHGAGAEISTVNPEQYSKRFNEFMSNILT
Assay [24] addresses Serine/threonine-protein kinase D2 (Homo sapiens) (UniProt Q9BZL6). Put plainly: Inhibition of wild-type human partial length PRKD2 (A519 to E838 residues) expressed in bacterial expression system at 1 uM by Kinomescan method relative to control.
Assay [25] has as its target Dual specificity mitogen-activated protein kinase kinase 4 (Homo sapiens) (UniProt P45985). As to the kind of experiment: Inhibition of wild-type human partial length MEK4 (S84 to D399 residues) expressed in mammalian expression system at 1 uM by Kinomescan method relative to control.
In assay [26] the target is Insulin receptor-related protein (Homo sapiens) (UniProt P14616). Put plainly: Inhibition of wild-type human partial length INSRR (R950 to E1278 residues) expressed in bacterial expression system at 1 uM by Kinomescan method relative to control.

Sequence of Calcium/calmodulin-dependent protein kinase type 1 (Homo sapiens) (Q14012 whole entry, looked up, the tested form may be a part): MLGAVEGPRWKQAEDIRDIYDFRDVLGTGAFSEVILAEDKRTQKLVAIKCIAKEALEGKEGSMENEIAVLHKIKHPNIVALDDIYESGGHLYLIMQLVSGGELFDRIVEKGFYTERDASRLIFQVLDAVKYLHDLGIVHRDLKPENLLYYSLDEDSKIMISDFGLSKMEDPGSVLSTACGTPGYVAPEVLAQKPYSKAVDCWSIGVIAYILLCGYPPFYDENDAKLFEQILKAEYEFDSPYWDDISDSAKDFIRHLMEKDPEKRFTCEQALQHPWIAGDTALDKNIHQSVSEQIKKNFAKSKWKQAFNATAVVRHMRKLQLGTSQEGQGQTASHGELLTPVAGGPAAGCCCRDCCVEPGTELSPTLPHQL
Sequence of Serine/threonine-protein kinase B-raf (Homo sapiens) (P15056 whole entry, the tested form may be a part, canonical isoform): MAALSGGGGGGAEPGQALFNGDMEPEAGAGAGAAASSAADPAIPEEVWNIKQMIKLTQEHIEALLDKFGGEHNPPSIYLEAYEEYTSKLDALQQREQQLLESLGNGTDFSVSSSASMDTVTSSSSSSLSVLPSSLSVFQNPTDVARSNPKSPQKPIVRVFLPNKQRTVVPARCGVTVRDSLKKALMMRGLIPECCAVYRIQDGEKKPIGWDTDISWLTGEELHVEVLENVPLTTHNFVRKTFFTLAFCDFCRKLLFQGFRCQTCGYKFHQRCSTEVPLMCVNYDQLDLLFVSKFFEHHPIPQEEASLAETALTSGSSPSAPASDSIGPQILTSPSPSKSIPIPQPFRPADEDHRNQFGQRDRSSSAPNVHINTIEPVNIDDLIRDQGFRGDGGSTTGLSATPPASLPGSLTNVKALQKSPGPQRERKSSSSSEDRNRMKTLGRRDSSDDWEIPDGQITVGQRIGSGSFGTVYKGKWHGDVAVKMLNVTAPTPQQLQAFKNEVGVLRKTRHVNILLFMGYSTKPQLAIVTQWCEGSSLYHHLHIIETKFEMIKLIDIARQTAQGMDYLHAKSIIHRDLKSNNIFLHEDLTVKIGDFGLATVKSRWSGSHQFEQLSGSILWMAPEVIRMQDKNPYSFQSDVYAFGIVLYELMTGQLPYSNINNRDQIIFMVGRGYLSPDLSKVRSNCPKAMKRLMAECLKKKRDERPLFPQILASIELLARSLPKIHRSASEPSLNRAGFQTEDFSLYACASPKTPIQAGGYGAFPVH
Sequence of Death-associated protein kinase 2 (Homo sapiens) (Q9UIK4 whole entry, looked up, the tested form may be a part): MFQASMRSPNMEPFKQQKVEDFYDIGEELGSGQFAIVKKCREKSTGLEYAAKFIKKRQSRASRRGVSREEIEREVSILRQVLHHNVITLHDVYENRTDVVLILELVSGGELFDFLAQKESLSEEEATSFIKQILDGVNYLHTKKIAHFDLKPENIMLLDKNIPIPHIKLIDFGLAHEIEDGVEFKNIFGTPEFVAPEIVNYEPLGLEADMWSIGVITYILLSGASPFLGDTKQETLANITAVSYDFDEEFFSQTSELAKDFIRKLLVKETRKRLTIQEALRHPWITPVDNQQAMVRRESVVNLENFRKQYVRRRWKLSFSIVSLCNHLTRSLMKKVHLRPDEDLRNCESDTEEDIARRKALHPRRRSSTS

For the compound `O=C(Nc1cccc([C@H]2CCCN(c3ncnc4[nH]ccc34)C2)c1)Nc1ccccc1N1CCCC1`, the inhibition (usually how much of the control response was suppressed) in assay [1] was found to be 93%; in assay [2] it was 64%; in [3], 0.9%; in assay [4] it was 7.1%; in assay [5], 25%; in assay [6], 8.5%. Moreover, the inhibition in assay [7] was 100%; in [8], 92%; in assay [9], 0.6%; in [10], 2.2%; in [11] it was 24%; in assay [12], 37%. Besides, the inhibition was found to be 43% in assay [13], 97% in assay [14] and 80% in assay [15].
Regarding `O=C(Nc1cccc([C@@H]2CN(c3ncnc4[nH]ccc34)CCN2CCO)c1)Nc1c(F)cccc1N1CCCC1`, the inhibition in assay [16] came out at 100%; in assay [17], 100%; in assay [18], 86%; in assay [19], 94%; in assay [20] it was 33%; in assay [21], 67%. Besides, the inhibition turned out to be 64% in assay [22]; 96% in [23]; 98% in assay [24]; 7.2% in [25]; 100% in [26].
